Experimental data from patent publication US20250074910A1, “MENIN INHIBITOR AND USE THEREOF” (HITGEN INC., priority 2021, published 2025).

What was measured:
[1] = target: Menin/MLL-4-43 peptide interaction (Homo sapiens (Human), UniProt O00255); test: Menin-MLL interaction inhibitory activity assay (fluorescence polarization competition); assay type: binding; settings: FITC-MLL4-43-peptide, Menin recombinant protein
Experimental: Test Example 1: Menin-MLL Interaction Inhibitory Activity Assay
The inhibition of Menin/MLL-4-43 peptide interaction by small molecule inhibitors was quantitatively detected by fluorescence polarization competition assay. The experiment was performed in a 384-well plate (Corning, Cat #3575) using a reaction buffer consisting of 50 mM Tris, pH 7.5, 50 mM NaCl, and 1 mM DTT. A 40 μL reaction system included 10 μL of 8 nM Menin recombinant protein and 10 μL of the test compound at different concentrations. The compound was pre-incubated with Menin protein for 15 min, and then 20 μL of 10 nM FITC-MLL4-43-peptide was added. After incubation on a shaker at 25° C. for 60 min, the fluorescence polarization signal (FP 485 520 520) was read using BMG PHERAStar detection. The experimental data was analyzed and processed by GraphPad Prism 6 software to obtain the IC50 value. The control compound 1 was prepared by referring to the method of Example 64 in WO2017214367.

[2] = test system: MV4-11; test: Cell proliferation inhibition (CellTiter-Glo), MV4-11; assay type: cell-based; settings: MV4-11 cells
Experimental: (§1) Test Example 2: Test of the Inhibitory Ability of Menin-MLL Interaction Inhibitors on Cell Proliferation
(§2) The inhibitory ability of the compounds of the present disclosure on the proliferation of tumor cell lines (including cell lines containing MLL fusion protein such as MV4-11, MOLM-13, THP-1 and NOMO-1, control cell lines without MLL fusion protein such as HL-60, K562 and MOLM-16, and cell lines containing NPM1 mutation such as OCI-AML3) was evaluated by using the cell viability analysis method. The cells were plated in 96-well plates at a certain concentration (e.g., 5,000-20,000 cells/well), and then an equal volume of culture medium containing 2 times the final concentration of the test compound (the final concentration ranging 10 from 1 nM to 10 μM) was added. The plates were placed in an incubator and cultured at 37° C. and 5% CO2 for 72-168 h. Before the test, an equal volume of CellTiter-Glo® Luminescent reagent was added, and the plate was incubated at room temperature for 10 min before detection using an ELISA reader (BMG LABTECH). The data were analyzed using GraphPad Prism software to obtain the IC50 value and compound fitting curve. The control compound 1 was prepared by referring to the method of Example 64 in WO2017214367.

[3] = test system: OCI-AML3; test: Cell proliferation inhibition (CellTiter-Glo), OCI-AML3 (NPM1 mutation); assay type: cell-based; settings: OCI-AML3 cells
Experimental: as §1, §2

Chain of Menin/MLL-4-43 peptide interaction (O00255 whole entry, species assumed): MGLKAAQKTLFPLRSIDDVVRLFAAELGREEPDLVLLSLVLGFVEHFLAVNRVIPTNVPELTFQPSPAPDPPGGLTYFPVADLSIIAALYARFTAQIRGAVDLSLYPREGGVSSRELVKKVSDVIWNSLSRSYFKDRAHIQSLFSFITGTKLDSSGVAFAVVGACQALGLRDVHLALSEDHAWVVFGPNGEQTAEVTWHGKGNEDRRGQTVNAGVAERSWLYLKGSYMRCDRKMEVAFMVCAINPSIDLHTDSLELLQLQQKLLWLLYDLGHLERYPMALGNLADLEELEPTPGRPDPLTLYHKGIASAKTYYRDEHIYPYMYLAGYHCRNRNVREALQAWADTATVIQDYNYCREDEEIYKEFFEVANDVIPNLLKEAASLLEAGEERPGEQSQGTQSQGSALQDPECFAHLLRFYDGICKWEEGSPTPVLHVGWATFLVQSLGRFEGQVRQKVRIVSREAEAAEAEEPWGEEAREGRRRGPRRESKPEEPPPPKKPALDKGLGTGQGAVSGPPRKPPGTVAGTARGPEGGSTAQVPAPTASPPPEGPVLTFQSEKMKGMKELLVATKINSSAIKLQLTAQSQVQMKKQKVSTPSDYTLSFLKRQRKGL

Row | Compound | IC50 [1] | GI50 ([2]; Homo sapiens, MV4-11, 72 h) | further results
1 | CCN(C(=O)c1cc(F)ccc1Oc1cncnc1N1CC2(CCN(CC3CC4CCC3CC43CCC(=O)N3)CC2)C1)C(C)C (single isomer, unassigned) [Example 3-2] | 113 nM | – | GI50 ([2]; 72 h): 86.1 nM
2 | CCN(C(=O)c1cc(F)ccc1Oc1cncnc1N1CC2(CCN(CC3CC4CCC3CC43CCC(=O)N3)CC2)C1)C(C)C (single isomer, unassigned) [Example 3] | 24 nM | 94.7 nM | –
3 | CCN(C(=O)c1cc(F)ccc1Oc1cncnc1N1CC2(CCN(CC3CC4CCC3CC43CCC(=O)N3)CC2)C1)C(C)C (single isomer, unassigned) [Example 4-1] | 12.1 nM | – | GI50 ([2]; 72 h): 55 nM
4 | CCN(C(=O)c1cc(F)ccc1Oc1cncnc1N1CC2(CCN(CC3CC4CCC3CC43CCC(=O)N3)CC2)C1)C(C)C (single isomer, unassigned) [Example 4-2] | 60.7 nM | – | –
5 | CCN(C(=O)c1cc(F)ccc1Oc1cncnc1N1CC2(CCN(CC3CC4CCC3CC43CCC(=O)N3)CC2)C1)C(C)C (single isomer, unassigned) [Example 4] | 29 nM | – | GI50 ([2]; 72 h): 61 nM
6 | CC(C)N(C(=O)c1cc(F)ccc1Oc1cncnc1N1CC2(CCN(CC3CC4CCC3CC43CCC(=O)N3)CC2)C1)C(C)C (single isomer, unassigned) [Example 13-1] | 21.3 nM | 82.6 nM | –
7 | CC(C)N(C(=O)c1cc(F)ccc1Oc1cncnc1N1CC2(CCN(CC3CC4CCC3CC43CCC(=O)N3)CC2)C1)C(C)C (single isomer, unassigned) [Example 13-1a] | 177 nM | – | –
8 | CC(C)N(C(=O)c1cc(F)ccc1Oc1cncnc1N1CC2(CCN(CC3CC4CCC3CC43CCC(=O)N3)CC2)C1)C(C)C (single isomer, unassigned) [Example 13-2] | 24.9 nM | – | GI50 ([2]; 72 h): 49.7 nM
9 | CC(C)N(C(=O)c1cc(F)ccc1Oc1cncnc1N1CC2(CCN(CC3CC4CCC3CC43CCC(=O)N3)CC2)C1)C(C)C (single isomer, unassigned) [Example 13-2a] | 16.5 nM | – | GI50 ([2]; 72 h): 25.2 nM
10 | CC(C)N(C(=O)c1cc(F)ccc1Oc1cncnc1N1CC2(CCN(CC3CC4CCC3CC43CCC(=O)N3)CC2)C1)C(C)C (single isomer, unassigned) [Example 13-2b] | 142 nM | – | GI50 ([2]; 72 h): 153 nM
11 | CC(C)N(C(=O)c1cc(F)ccc1Oc1nncnc1N1CC2(CCN(CC3CC4CCC3CC43CCC(=O)N3)CC2)C1)C(C)C (single isomer, unassigned) [Example 15-1b] | 142 nM | – | –
12 | CCN(C(=O)c1cc(F)ccc1Oc1nncnc1N1CC2(CCN(C[C@H]3CC[C@]4(CC3)CC(C)C(=O)N4)CC2)C1)C(C)C (single isomer, unassigned) [Example 40-2] | 34.9 nM | – | GI50 ([2]; 72 h): 82.8 nM
13 | [2H]C([2H])([2H])C1C[C@]2(CC[C@@H](CN3CCC4(CC3)CN(c3ncnnc3Oc3ccc(F)cc3C(=O)N(CC)C(C)C)C4)CC2)NC1=O (single isomer, unassigned) [Example 42-2] | 44.5 nM | – | –
14 | CCN(C(=O)c1cc(F)ccc1Oc1cncnc1N1CC2(CCN(CC3CC4CCC3CC43COC(=O)N3)CC2)C1)C(C)C (single isomer, unassigned) [Example 50-1] | 36 nM | 74.4 nM | –
15 | CCN(C(=O)c1cc(F)ccc1Oc1cncnc1N1CC2(CCN(CC3CC4CCC3CC43COC(=O)N3)CC2)C1)C(C)C (single isomer, unassigned) [Example 50-2] | 39.9 nM | – | GI50 ([2]; 72 h): 69.1 nM
16 | CC(C)N(C(=O)c1cc(F)ccc1Oc1cncnc1N1CC2(CCN(CC3CC4CCC3CC43COC(=O)N3)CC2)C1)C(C)C (single isomer, unassigned) [Example 51-1b] | 46.7 nM | 16.1 nM | GI50 ([3]; Homo sapiens, OCI-AML-3, 168 h): 20.3 nM
17 | CC(C)N(C(=O)c1cc(F)ccc1Oc1cncnc1N1CC2(CCN(CC3CC4CCC3CC43COC(=O)N3)CC2)C1)C(C)C (single isomer, unassigned) [Example 51-2a] | 70.7 nM | – | GI50 ([2]; 72 h): 11.7 nM; GI50 ([3]; 168 h): 31.5 nM

Row | Compound | IC50 [1] | GI50 ([2]; Homo sapiens, MV4-11, 72 h) | further results
18 | CC(C)N(C(=O)c1cc(F)ccc1Oc1cncnc1N1CC2(CCN(CC3CC4CCC3CC43COC(=O)N3)CC2)C1)C(C)C (single isomer, unassigned) [Example 51-2b] | 141 nM | – | –
19 | CC(C)N(C(=O)c1cc(F)ccc1Oc1nncnc1N1CC2(CCN(CC3CC4CCC3CC43COC(=O)N3)CC2)C1)C(C)C (single isomer, unassigned) [Example 52-1] | 135 nM | – | –
20 | CC(C)N(C(=O)c1cc(F)ccc1Oc1nncnc1N1CC2(CCN(CC3CC4CCC3CC43COC(=O)N3)CC2)C1)C(C)C (single isomer, unassigned) [Example 52-2] | 93.9 nM | – | –
21 | CC(C)N(C(=O)c1cc(F)ccc1Oc1nncnc1N1CC2(CCN(CC3CC4CCC3CC43COC(=O)N3)CC2)C1)C(C)C (single isomer, unassigned) [Example 52-2b] | 198 nM | – | GI50 ([3]; 168 h): 50.6 nM
22 | CC(C)N(C(=O)c1cc(F)ccc1Oc1nncnc1N1CC2(CCN(C[C@H]3CC[C@@]4(CCC(=O)N4)CC3)CC2)C1)C1CC1 [Example 11] | 167 nM | – | –
23 | CCN(C(=O)c1cc(F)ccc1Oc1nncnc1N1CC2(CCN(CC3CC4CCC3CC43CCC(=O)N3)CC2)C1)C(C)C (centres unmarked) [Example 14-1] | 103 nM | – | –
24 | CC(C)N(C(=O)c1cc(F)ccc1Oc1nncnc1N1CC2(CCN(CC3CC4CCC3CC43CCC(=O)N3)CC2)C1)C(C)C (centres unmarked) [Example 15-1] | 90.9 nM | – | –
25 | CC(C)N(C(=O)c1cc(F)ccc1Oc1nncnc1N1CC2(CCN(CC3CC4CCC3CC43CCC(=O)N3)CC2)C1)C1CC1 (centres unmarked) [Example 16-1] | – | 130 nM | –
26 | CC(C)N(C(=O)c1cc(F)ccc1Oc1nncnc1N1CC2(CCN(CC3CC4CCC3CC43CCC(=O)N3)CC2)C1)C1CC1 (centres unmarked) [Example 16-2] | 163 nM | – | –
27 | CC(C)N(C)C(=O)c1cc(F)ccc1Oc1nncnc1N1CC2(CCN(C[C@H]3CC[C@]4(CC3)CC(C)(C)C(=O)N4)CC2)C1 [Example 28] | 134 nM | – | –
28 | [2H]C([2H])([2H])C1(C([2H])([2H])[2H])C[C@]2(CC[C@@H](CN3CCC4(CC3)CN(c3ncnnc3Oc3ccc(F)cc3C(=O)N(CC)C(C)C)C4)CC2)NC1=O [Example 33] | 8.4 nM | 20.5 nM | –
29 | [2H]C([2H])([2H])C1(C([2H])([2H])[2H])C[C@]2(CC[C@@H](CN3CCC4(CC3)CN(c3ncnnc3Oc3ccc(F)cc3C(=O)N(C(C)C)C(C)C)C4)CC2)NC1=O [Example 34] | 6.4 nM | 12.6 nM | –
30 | CCN(C(=O)c1cc(F)ccc1Oc1cncnc1N1CC2(CCN(C[C@H]3CC[C@]4(CC3)C[C@@H](COC)C(=O)N4)CC2)C1)C(C)C [Example 35] | 3.6 nM | 11.7 nM | –
31 | COC[C@@H]1C[C@]2(CC[C@@H](CN3CCC4(CC3)CN(c3ncncc3Oc3ccc(F)cc3C(=O)N(C(C)C)C(C)C)C4)CC2)NC1=O [Example 36] | 4.4 nM | 13.1 nM | –
32 | CC1C[C@]2(CC[C@@H](CN3CCC4(CC3)CN(c3ncncc3Oc3ccc(F)cc3C(=O)N(C(C)C)C(C)C)C4)CC2)NC1=O (some centres unmarked) [Example 39] | 23.8 nM | 20 nM | –
33 | CC1C[C@]2(CC[C@@H](CN3CCC4(CC3)CN(c3ncnnc3Oc3ccc(F)cc3C(=O)N(C(C)C)C(C)C)C4)CC2)NC1=O (some centres unmarked) [Example 41-2] | 22.4 nM | – | –
34 | C=C1C[C@]2(CC[C@@H](CN3CCC4(CC3)CN(c3ncncc3Oc3ccc(F)cc3C(=O)N(C(C)C)C(C)C)C4)CC2)NC1=O [Example 62] | 19.9 nM | 34.8 nM | –
